Like-named read-outs stand apart in the source and are kept apart here.
What was measured:
[1] = tested on: Intracellular L. amazonensis; assay: Efficacy against intracellular L. amazonensis amastigotes; assay type: cell-based; conditions: Leishmania amazonensis
Description: (§1) Methods employed for the evaluation of the efficacy of mono-AIA target compounds against intracellular L. amazonensis[14] and intracellular L. donovani[15] and for toxicity to murine J774 macrophages[16] have been described previously. […] For ease in illustrating the antileishmanial SAR of this series of compounds, the central phenyl ring, the linker, and the terminal phenyl ring are referred to as rings A, B, and C, respectively (Fig. 1).

[2] = tested on: Intracellular L. donovani; assay: Efficacy against intracellular L. donovani amastigotes; assay type: cell-based; conditions: Leishmania donovani; means ± standard errors of at least three independent experiments
Description: as §1

J774 macrophages = assay: Toxicity to murine J774 macrophages (host cell counterscreen); assay type: cell-based; conditions: for IC50: Mus musculus; for selectivity index for intracellular Leishmania compared to J774 murine macrophages: IC50 vs J774 macrophages/IC50 vs Leishmania
Description: For ease in illustrating the antileishmanial SAR of this series of compounds, the central phenyl ring, the linker, and the terminal phenyl ring are referred to as rings A, B, and C, respectively (Fig. 1).

healthy BALB/c mice = assay: In vivo toxicity assessment in healthy BALB/c mice; conditions: i.p. 30 mg/kg/day for 5 days, dissolved in water
Method: (§2) Compounds 1b, 1d, and 1k were dissolved in water and administered to healthy BALB/c mice for assessment of their in vivo toxicity. […] Animals were infected with L. donovani LV82 promastigotes and then treated with different compounds one week post infection for five consecutive days. These mice were euthanized two weeks post infection and liver smear slides were prepared for the microscopic determination of parasitemia.

L. donovani LV82 = assay: Murine model of visceral leishmaniasis (liver parasitemia); assay type: in vivo; conditions: L. donovani-infected mice; for suppression (inhibition) of liver parasitemia: i.p. 30 mg/kg/day for 5 days, vs untreated control
Method: as §2
Compounds were administered i.p. (A and B) or p.o. (C) once daily for 5 days to infected mice. Results are presented as the percentage inhibition of liver parasitemia. Bars and error bars show the mean and standard deviation, respectively (n = 4) ^*p < 0.01, compared to untreated control, ^#p < 0.05, compared to untreated control.

[3] = Plasma and tissue concentrations after a single oral dose; assay type: in vivo; conditions: mouse, mice; for concentration at 24 h: 24 h after single oral dose 100 μmol/kg (40 mg/kg); for concentration at 1 h: 1 h after single oral dose 100 μmol/kg (40 mg/kg)
Method: To confirm the exposure and accumulation of 1b in target organs after oral administration, plasma and tissue concentrations of this compound were determined at 1, 2 and 24 h after a single oral dose at 100 μmol/kg (or 40 mg/kg) in mice. Compound 1b accumulated in the target organs such as liver and spleen at higher concentrations (C1h = 12.6 and 4.7 μM, respectively) than in the plasma (C1h = 1.9 μM) (Fig. 3). At 24 h post dose, 1b concentrations decreased substantially to 0.14 μM in the plasma and 0.6–0.7 μM in the liver and spleen.
Figure 3 Concentration of 1b in liver ( [drawing 15] ), spleen ( [drawing 16] ), kidney ( [drawing 17] ), and plasma ( [drawing 18] ) after oral administration at a dose of 100 μmol/kg (or 40 mg/kg) to mice. Bars and error bars represent means and standard errors of triplicate determinations, respectively.

[4] = tested on: intracellular L. amazonensis amastigotes; assay: Combination study of 1b and posaconazole against intracellular L. amazonensis amastigotes; assay type: cell-based; conditions: Leishmania amazonensis; combination experiment, absence of posaconazole; read-out: IC50 of 1b alone
Description: Our efforts to explore the mechanism of antileishmanial action of the bis-AIAs led to the observation that DB766 is synergistic with posaconazole against Leishmania donovani in vitro[17]; other investigators reported in vitro antileishmanial synergy between posaconazole and the squalene synthase inhibitor E5700.[18] A combination study with 1b and posaconazole was thus performed against intracellular L. amazonensis amastigotes. […] Instead, the method described by Peters et al.[23] was employed to determine whether posaconazole enhances the potency of 1b. […] Although both assays involved incubating infected murine peritoneal macrophages with posaconazole for 72 h, de Macedo-Silva exposed peritoneal macrophages to L. amazonensis for a shorter time compared to our studies prior to removing extracellular parasites (2 h vs overnight). […] Thus, a likely explanation for the discrepancy between IC50 values for posaconazole against intracellular L. amazonensis in the two studies is the differences in assay conditions employed.
Figure 4 In vitro interactions between 1b and posaconazole against intracellular L. amazonensis. Results are presented as the IC50 of 1b alone and in different combinations. Bars and error bars show the mean and standard deviation of three independent experiments.

[5] = means ± standard errors of at least three independent experiments, values marked b: means ± range of two experiments, read-out: IC50 Intracellular L. amazonensis
[6] = murine J774 macrophages, means ± standard errors of at least three independent experiments, read-out: IC50 J774 macrophages

Row | Compound | IC50 [1, 5] [nM] | IC50 [2] [nM] | IC50 (J774 macrophages; [6]) [nM] | also measured
1 | CC(C)Oc1cc(NC(=N)c2ccccn2)ccc1-c1ccco1 [Compound 1a] | 2100 ± 200 | 2400 ± 300 | 22000 | –
2 | CC(C)Oc1cc(NC(=N)c2ccccn2)ccc1-c1ccc(-c2ccccc2)o1.CS(=O)(=O)O [Compound 1b, N-(3-isopropoxy-4-(5-phenylfuran-2-yl)phenyl)picolinimidamide methanesulfonate] | 130 ± 30 | 310 ± 10 | 13000 | selectivity index for intracellular Leishmania compared to J774 murine macrophages (J774 macrophages): ≥ 25; in vivo tolerability (healthy BALB/c mice): well tolerated; suppression (inhibition) of liver parasitemia (L. donovani LV82): 37%; inhibition of liver parasitemia (L. donovani LV82; p.o. 50 mg/kg once daily for 5 days): 37%; inhibition of liver parasitemia (L. donovani LV82; p.o. 100 mg/kg/day for five days, vs control): 46%; concentration at 24 h ([3]; liver and spleen, read-out: concentration in the liver and spleen at 24 h post dose): 600 to 700 nM; concentration at 1 h ([3]; liver, read-out: liver concentration C1h): 12600 nM; concentration at 1 h ([3]; plasma, read-out: plasma concentration C1h): 1900 nM; concentration at 24 h ([3]; plasma, read-out: plasma concentration at 24 h post dose): 140 nM; concentration at 1 h ([3]; spleen, read-out: spleen concentration C1h): 4700 nM; IC50 [4]: 260 ± 50 nM
3 | CC(C)Oc1cc(NC(=N)c2ccccn2)ccc1-c1ccc(-c2cncnc2)o1 [Compound 1c] | 1100 ± 300 | 2100 ± 400 | > 20000 | –
4 | CC(C)Oc1cc(NC(=N)c2ccccn2)ccc1-c1ccc(-c2ccco2)o1.Cl [Compound 1d] | 250 ± 10 | 340 ± 50 | 8500 ± 800 | selectivity index for intracellular Leishmania compared to J774 murine macrophages (J774 macrophages): ≥ 25; in vivo tolerability (healthy BALB/c mice): well tolerated; suppression (inhibition) of liver parasitemia (L. donovani LV82): 13%
5 | CC(C)Oc1cc(NC(=N)c2ccccn2)ccc1-c1ccc(-c2cccnc2)o1 [Compound 1e] | 900 ± 230 | 1200 ± 100 | > 50000 | –
6 | CC(C)Oc1cc(NC(=N)c2ccccn2)ccc1-c1ccc(-c2ccncc2)o1 [Compound 1f] | 2700 ± 200 | 2600 ± 100 | 22000 | –
7 | COc1ccc(-c2ccc(-c3ccc(NC(=N)c4ccccn4)cc3OC(C)C)o2)cc1 [Compound 1g] | 820 ± 310 | 900 ± 150 | 6700 ± 900 | –
8 | CC(C)Oc1cc(NC(=N)c2ccccn2)ccc1-c1ccc(-c2ccc(F)cc2)o1 [Compound 1h] | 920 ± 190 | 1100 ± 100 | 8000 ± 100 | –
9 | COc1ccccc1-c1ccc(-c2ccc(NC(=N)c3ccccn3)cc2OC(C)C)o1 [Compound 1i] | 1400 ± 200 | 1300 ± 100 | 5300 ± 1000 | –
10 | CC(C)Oc1cc(-c2ccc(-c3ccccc3)o2)ccc1NC(=N)c1ccccn1 [Compound 1j] | 1600 ± 300 | 1400 ± 300 | 13000 | –
11 | CS(=O)(=O)O.N=C(Nc1ccc(-c2ccc(-c3ccccc3)o2)c(OC2CCCC2)c1)c1ccccn1 [Compound 1k] | 140 ± 10 | 170 ± 40 | 13000 | selectivity index for intracellular Leishmania compared to J774 murine macrophages (J774 macrophages): ≥ 25; in vivo tolerability (healthy BALB/c mice): well tolerated; suppression (inhibition) of liver parasitemia (L. donovani LV82): 20%
12 | CCOc1cc(NC(=N)c2ccccn2)ccc1-c1ccc(-c2ccccc2)o1 [Compound 1l] | 980 ± 70 | 850 ± 170 | 6600 ± 600 | –
13 | COc1cc(NC(=N)c2ccccn2)ccc1-c1ccc(-c2ccccc2)o1 [Compound 1m] | 3700 ± 1300 | 1400 ± 300 | 9000 ± 2000 | –
14 | N=C(Nc1ccc(-c2ccc(-c3ccccc3)o2)c(C(F)(F)F)c1)c1ccccn1 [Compound 1n] | > 10000 | 6100 ± 1400 | > 20000 | –
15 | CC(C)Oc1cc(NC(=N)c2ccccn2)ccc1-c1ccc(-c2ccccc2)s1 [Compound 1o] | 2300 ± 300 | 2200 ± 500 | 6900 ± 400 | –
16 | CC(C)Oc1cc(NC(=N)c2ncccn2)ccc1-c1ccc(-c2ccccc2)o1 [Compound 1p] | 650 ± 160 | 440 ± 60 | 12000 | –
17 | COc1ccc(-n2cc(-c3ccc(NC(=N)c4ccccn4)cc3OC(C)C)nn2)cc1 [Compound 2] | 2900 ± 100 | 1600 ± 200 | 16000 | –
18 | CC(C)Oc1cc(NC(=N)c2ccccn2)ccc1-c1cnc(-c2ccccc2)o1 [Compound 3] | 590 ± 60 | 1000 | 24000 | –
19 | C[C@@H]1[C@H](O)[C@@H](C)/C=C/C=C/C=C/C=C/C=C/C=C/C=C/[C@H](O[C@@H]2O[C@H](C)[C@@H](O)[C@H](N)[C@@H]2O)C[C@@H]2O[C@](O)(C[C@@H](O)C[C@@H](O)[C@H](O)CC[C@@H](O)C[C@@H](O)CC(=O)O[C@H]1C)C[C@H](O)[C@H]2C(=O)O [amphotericin B, reference compound] | 120 ± 10 | 40 ± 3 | – | –
20 | CCCCCCCCCCCCCCCCOP(=O)([O-])OCC[N+](C)(C)C [miltefosine, reference compound] | – | – | – | inhibition of liver parasitemia (L. donovani LV82; i.p. 10 mg/kg/day for five days, 10 mg/kg/day): > 90%; inhibition of liver parasitemia (L. donovani LV82; i.p. 10 mg/kg/day for five days, listed as Milt, 10 mg/kg/day): 99%; inhibition of liver parasitemia (L. donovani LV82; i.p. 10 mg/kg/day for five days, listed as Miltefosine, 10 mg/kg/day): 98%; inhibition of liver parasitemia (L. donovani LV82; p.o. 10 mg/kg/day for five days, 10 mg/kg/day): > 90%; inhibition of liver parasitemia (L. donovani LV82; p.o. 10 mg/kg/day for five days, listed as Milt, 10 mg/kg/day): 96%
21 | COc1cc([C@@H]2c3cc4c(cc3[C@H](O)[C@H]3COC(=O)[C@H]23)OCO4)cc(OC)c1OC [podophyllotoxin, reference compound] | – | – | – | IC50 (J774 macrophages; J774, read-out: IC50 J774 macrophages): 24 ± 5 nM
22 | CC[C@@H]([C@H](C)O)n1ncn(-c2ccc(N3CCN(c4ccc(OC[C@@H]5CO[C@@](Cn6cncn6)(c6ccc(F)cc6F)C5)cc4)CC3)cc2)c1=O [posaconazole, reference compound] | – | – | – | IC50 ([1]; Peritoneal macrophage, infected murine peritoneal macrophages, 72 h, low solubility at higher concentrations, read-out: IC50 against intracellular L. amazonensis): > 10000 nM
